Laboratory results reported in article PMC5988692, “AZ304, a novel dual BRAF inhibitor, exerts anti-tumour effects in colorectal cancer independently of BRAF genetic status” (British Journal of Cancer, 2018).
Read-outs that look alike come from different tables or passages of the source.

Key:
[1] = Xenograft study, animal health and body weight; format: in vivo; conditions: RKO and Caco-2 xenograft mice, 10 days treatment
Experimental: All in vivo experiments were performed in accordance with Institutional Review Board of China Medical University guidelines. Female 4–6 weeks old athymic BALB/c nude mice were purchased from Shanghai SLAC Laboratory Animal Centre (Shanghai, China). RKO/Caco-2 cells (1 × 10^7) in 200 μl PBS were injected subcutaneously into the right scapular region of mice. […] Tumours were measured with a caliper every 2 days, so did body weights. Tumour volume was calculated using the formula V = 1/2 (width^2 × length). Mice were terminated by CO2 inhalation when the tumour diameters reached 1.5 cm, according to the protocol filed with the Guidance of Institutional Animal Care and Use Committee of China Medical University.
Supplementary Figure 2 Weights of xenografts from RKO and Caco-2 cells was measured every 2 days.

DU145 = experiment: Cell proliferation assay (cell panel, MTS); format: cell-based; conditions: Homo sapiens, DU-145, 72 h; DU145, Prostate, BRAF WT, RAS WT, 3 days
Experimental: (§1) The proliferation assays against a cell panel were performed as described in ref.[18] Briefly, the cells were treated with DMSO or multiple concentrations of AZ304 for 3 days. The cell growth was determined using the CellTiter 96 Aqueous One Cell Proliferation Assay (Promega, Madison, WI). […] The assays were done in triplicate across different plates.
(§2) Anti-proliferative activity of AZ304 against a panel of cell lines with different BRAF and RAS genetic status. […] Cell growth was determined by MTS assay.

CHL-1 = experiment: Cell proliferation assay (cell panel, MTS); format: cell-based; conditions: Homo sapiens, 72 h; CHL-1, Melanoma, BRAF WT, RAS WT, 3 days
Experimental: as §1, §2

LNCaP clone FGC = experiment: Cell proliferation assay (cell panel, MTS); format: cell-based; conditions: Homo sapiens, 72 h, Prostate, BRAF WT, RAS WT, 3 days
Experimental: as §1, §2

NIH: OVCAR-3 = experiment: Cell proliferation assay (cell panel, MTS); format: cell-based; conditions: Homo sapiens, 72 h; NIH: OVCAR-3, Ovary, BRAF WT, RAS WT, 3 days
Experimental: as §1, §2

SW620 = experiment: Cell proliferation assay (cell panel, MTS); format: cell-based; conditions: Homo sapiens, SW-620, 72 h; SW620, Colon, BRAF WT, KRAS MT, 3 days
Experimental: as §1, §2

HCT116 = experiment: Cell proliferation assay (cell panel, MTS); format: cell-based; conditions: Homo sapiens, HCT-116, 72 h; HCT116, Colon, BRAF WT, KRAS MT, 3 days
Experimental: as §1, §2

MC-F7/mdr+ = experiment: Cell proliferation assay (cell panel, MTS); format: cell-based; conditions: Homo sapiens, MCF7, 72 h, Breast, BRAF WT, RAS WT, 3 days
Experimental: as §1, §2

SK-BR-3 = experiment: Cell proliferation assay (cell panel, MTS); format: cell-based; conditions: Homo sapiens, 72 h; SK-BR-3, Breast, BRAF WT, RAS WT, 3 days
Experimental: as §1, §2

MIAPaCa-2 = experiment: Cell proliferation assay (cell panel, MTS); format: cell-based; conditions: Homo sapiens, MIA PaCa-2, 72 h; MIAPaCa-2, Pancreas, BRAF WT, KRAS MT, 3 days
Experimental: as §1, §2

p38 = p38 (Homo sapiens, UniProt Q16539); experiment: 33P-ATP filter binding kinase assay (MBP phosphorylation); format: biochemical; conditions: ATP Km
Sequence of p38 (Q16539 whole entry): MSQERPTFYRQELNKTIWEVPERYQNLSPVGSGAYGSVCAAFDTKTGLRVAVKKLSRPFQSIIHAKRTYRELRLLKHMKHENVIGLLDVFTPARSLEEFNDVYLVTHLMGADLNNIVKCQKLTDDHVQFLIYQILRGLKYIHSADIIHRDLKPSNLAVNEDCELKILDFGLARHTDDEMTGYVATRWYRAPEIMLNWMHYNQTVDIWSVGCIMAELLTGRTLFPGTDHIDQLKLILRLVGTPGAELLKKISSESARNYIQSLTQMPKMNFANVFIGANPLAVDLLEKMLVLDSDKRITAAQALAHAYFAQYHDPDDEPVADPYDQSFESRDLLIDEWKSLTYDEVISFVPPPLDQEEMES
Experimental: For RAF kinases, detailed assay information was described in ref.[18] Briefly, the kinase activity of BRAF WT, BRAF V600E, or CRAF was measured using an AlphaScreen assay (Perkin Elmer, MA) monitoring MEK1/2 phosphorylation at Ser217/221. For CDK2 and CDK4 kinases, activity was also measured by AlphaScreen, monitoring phosphorylation of biotin Rb peptide at Ser780. Similarly, MAP3K7, CSF1R and JAK2 kinase activity was measured by phosphorylation of their biotinylated substrates MKK6 kinase dead protein at Ser271/Thr275, or tyrosine phosphorylation of pEY or Tyk2 Tyr1054/1055 peptides, respectively. CSK, IGF1R, EGFR, FGFR1 and SRC kinase activity was measured using a sandwich ELISA detecting phosphorylated poly EAY peptide with a HRP conjugated phosphotyrosine antibody and TMB substrate, while p38 kinase activity was measured by monitoring phosphorylation of MBP protein with radiolabeled ^33P-ATP in a filter binding format. All assays were screened under respective ATP Km conditions and inhibitor IC50s were derived from either 5 (RAF kinases, CDK2, CDK4, MAP3K7, JAK2), 10 (CSK, IGF1R, EGFR, FGFR1, SRC) or 11 (p38, CSF1R) point compound dose response.

[2] = system: RKO, HT-29, DiFi and Caco-2 cells; experiment: EdU incorporation assay; format: cell-based, human; conditions: four CRC cell lines, 24 h
Experimental: Selected colorectal cancer cells were seeded into 96-well plates (2000–5000 cells per well). After incubation for 24 h, the cells were pretreated with DMSO or AZ304 for 24 h. Then 50 μM of 5-ethynyl-2′-deoxyuridine (EdU, Ribobio, Guangzhou, China) was added to each well and the cells were incubated at 37 °C for 2 h before being fixed with 4% formaldehyde for 30 min and incubated with 2 mg/ml glycine for 5 min. After being washed with PBS for five times, the cells were reacted with 100 μL of 1 × Apollo reaction cocktail for 30 min. Afterwards, the 1 × Hoechst 33342 (5 μg/mL) was used to stain the nuclei.
Two V600E mutant BRAF cell lines (RKO, HT-29) and two wild-type BRAF cell lines (DiFi, Caco-2) were treated with DMSO or increasing concentrations of AZ304 (0, 0.1, 1, 10, 100 μM), for 48 h (a) and 72 h (b). Viable cells were determined by MTT assay. c EdU incorporation assay. Four cells lines from (a) were treated with DMSO or indicated AZ304 for 24 h, followed by incubation with EdU and Hoechst in sequence. […] Expression levels of phosphorylation ERK were analysed by Western blot. e BRAF mutant cell line RKO, and BRAF wild type cell line Caco-2 were treated with DMSO or 2 uM AZ304 for the indicated times. Expression levels of phosphorylation ERK were analysed by Western blot. […] Cell viability was determined by MTT assay

p-ERK in SK-MEL-31 cells = experiment: SK-MEL-31 p-ERK cellular assay; format: cell-based; conditions: Homo sapiens, 1.25 h, read-out: EC50, reduction of p-ERK

COc1ccc2c(Nc3cc(NC(=O)c4cccc(C(C)(C)C#N)c4)ccc3C)ncnc2c1 [AZ304]
tolerability (animal health, body weight) [1]: without obvious toxicity
GI50 (DU145): 11.7 µM
GI50 (CHL-1): 8.27 µM
GI50 (LNCaP clone FGC): 3.32 µM
GI50 (NIH: OVCAR-3): 11 µM
GI50 (SW620): 2.78 µM
GI50 (HCT116): 2.74 µM
GI50 (MC-F7/mdr+): 7.63 µM
GI50 (SK-BR-3): 11.6 µM
GI50 (MIAPaCa-2): 1.16 µM
IC50 (p38): 0.006 µM
DNA replication (EdU-positive cells) [2]: suppressed DNA replication in CRC cells at all concentrations
EC50 (p-ERK in SK-MEL-31 cells; SK-MEL-31 (wild type BRAF melanoma), 75 min, without EGF): 0.06 µM
EC50 (p-ERK in SK-MEL-31 cells; SK-MEL-31, 75 min, with EGF stimulation): 0.052 µM
